# Columns and labels:
# Format in all cases: binding
# [1] = system: T1, KRas^G12D; assay: Intact MS photoaffinity labeling screen, KRas G12D (302 nm, LCMS-TOF); details: for MS labeling percentage, KRas: KRas G12D, 302 nm 10 min; for KRAS-G12D: experimental hit status flag (0/1); for experimental hit status KRAS-G12D: 0/1 flag
# T1 construct: purchased GSK/GenScript
# In short: (§1)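 Labeling detected as mass additions in deconvoluted intact-protein LCMS-TOF spectra. Protein at 1 μM in PBS was first mixed with one fragment per well on ice for 15 min, followed by 10 min UV exposure at 302 nm.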
# [2] = system: myoglobin (Myo); assay: Intact protein MS photoaffinity labeling screen, myoglobin; details: intact protein MS after 10 min irradiation
# In short: (§2)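 Fragments tested one per well, each incubated 15 min with protein to form non-covalent complexes before photo-crosslinking. Labeling read directly by intact protein MS as mass additions matching fragment adducts, expressed as labeling %.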
# [3] = system: T2, BRD4-BD1; assay: Intact MS photoaffinity labeling screen, BRD4-BD1 (302 nm, LCMS-TOF); details: for MS labeling percentage, BRD4: BRD4-BD1, 302 nm 10 min; for BRD4-BD1: experimental hit status flag (0/1); for experimental hit status BRD4-BD1: 0/1 flag
# T2 construct: screened the PhP library against the first bromodomain of BRD4 (BRD4-BD1); purchased GSK/GenScript
# In short: as §1
# [4] = system: T3, STAT5B-NTD; assay: Intact MS labeling screen, STAT5B-NTD conjugated with photocatalyst Ir-G2-PEG3-COOH (450 nm); details: 450 nm 10 min;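 further: 0.14 µL of 100 mM DMSO fragment stock added to the conjugate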
# T3 construct: His-SUMO (N, cleaved yes); made in house; host or cells: E. coli BL21 RILP
# In short: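 Ir-G2-PEG3-COOH photocatalyst (10 eq) activated 30 min with EDC/NHS/BOP, then conjugated to STAT5B-NTD (7 µM) overnight at RT or 1 h at 37 °C in dark. PhP added, 1 h dark, then 450 nm irradiation 10 min at 4 °C; labeling read by intact LC-MS, positive ion mode, m/z 100–2000.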
# [5] = system: T3, STAT5B-NTD; assay: Intact MS photoaffinity labeling screen, STAT5B-NTD (365 nm, UHPLC-MS); details: for MS labeling percentage, STAT5B: STAT5B-NTD, 365 nm 10 min, no photocatalyst; for STAT5B-NTD: experimental hit status flag (0/1); for experimental hit status STAT5B-NTD: 0/1 flag;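 on MS labeling percentage, STAT5B: 0.17 µL of 100 mM DMSO fragment stock added to the protein sample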
# In short: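 UV irradiation at 365 nm for 10 min at 4 °C. Labeling read by intact-protein UHPLC-MS, positive ion mode, m/z 100–2000.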
# [6] = system: carbonic anhydrase II (CA); assay: Intact protein MS photoaffinity labeling screen, carbonic anhydrase; details: intact protein MS after 10 min irradiation
# In short: as §2
# [7] = system: lysozyme (Lyo); assay: Intact protein MS photoaffinity labeling screen, lysozyme; details: intact protein MS after 10 min irradiation
# In short: as §2
# [8] = hit flag 1/0, sheet PhP, photoaffinity labeling screen
# [9] = PhP library sheet "PhP", binary flag printed as 0 or 1, key not given
# [10] = sheet PhP, experimental hit status flag given as 0 or 1
SMILES,"MS labeling percentage, KRas [1] [%]","MS labeling percentage, Myo [2] [%]","MS labeling percentage, BRD4 [3] [%]","MS labeling percentage, STAT5B+photocat [4] [%]","MS labeling percentage, STAT5B [5] [%]","MS labeling percentage, CA [6] [%]","MS labeling percentage, Lyo [7] [%]",other results
"Cc1[nH]cnc1CNC(=O)CCC1(C)N=N1 [PhP009, Cc1[nH]cnc1CNC(=O)CCC2(C)N=N2]",0.7,0.4,0.7,1,1,0.6,0,KRAS-G12D [1]: 0; BRD4-BD1 [3]: 0; STAT5B-NTD [5]: 0
"CC1(CCC(=O)NCc2ccc(N3CCC(CO)CC3)cc2)N=N1 [PhP010, N1=NC1(C)CCC(=O)NCc2ccc(cc2)N3CCC(CO)CC3]",0.5,0,0.3,0,1,0,0,KRAS-G12D [1]: 0; BRD4-BD1 [3]: 0; STAT5B-NTD [5]: 0
"CC1(CCC(=O)Nc2nc(-c3c[nH]c(C(N)=O)c3)cs2)N=N1 [PhP011, N1=NC1(C)CCC(=O)Nc2nc(cs2)-c3c[nH]c(c3)C(=O)N]",0.2,0,0.2,3.4,2,0,0,KRAS-G12D [1]: 0; BRD4-BD1 [3]: 0; STAT5B-NTD [5]: 0
"CC1(CCC(=O)NCC(C)(C)NS(C)(=O)=O)N=N1 [PhP045, CS(=O)(=O)NC(C)(C)CNC(=O)CCC1(C)N=N1]",0.2,0.2,0.4,2.3,0,0.5,0,"KRAS-G12D (experimental hit status) [1, 8]: 0; BRD4-BD1 (experimental hit status) [3, 8]: 0; STAT5B-NTD (experimental hit status) [5, 8]: 0"
"CCOC(=O)[C@H](NC(=O)CCC1(C)N=N1)c1ccccc1 [PhP005, c1ccccc1[C@H](C(=O)OCC)NC(=O)CCC2(C)N=N2]",0,0.1,0.1,1.5,2,0.1,0,KRAS-G12D [1]: 0; BRD4-BD1 [3]: 0; STAT5B-NTD [5]: 0
"CC1(CCC(=O)NCCNC(=O)Nc2ccccc2)N=N1 [PhP094, N1=NC1(C)CCC(=O)NCCNC(=O)Nc2ccccc2]",0.5,0.1,1.1,2.1,1,0.4,0.9,"KRAS-G12D (experimental hit status) [1, 9]: 0; BRD4-BD1 (experimental hit status) [3, 9]: 0; STAT5B-NTD (experimental hit status) [5, 9]: 0"
"CC1(CCC(=O)NCc2ccc(-n3ccnc3)cc2)N=N1 [PhP033, N1=NC1(C)CCC(=O)NCc2ccc(cc2)-n3ccnc3]",0.5,0.3,1.1,0.3,1,0.5,0,experimental hit status KRAS-G12D [1]: 0; experimental hit status BRD4-BD1 [3]: 0; experimental hit status STAT5B-NTD [5]: 0
"COc1ccc(OC)c(C(C)NC(=O)CCC2(C)N=N2)c1 (centres unmarked) [PhP062, COc1ccc(OC)c(c1)C(C)NC(=O)CCC2(C)N=N2]",63.2,1.1,7.9,1.9,2,2.3,1,"KRAS-G12D (experimental hit status) [1, 10]: 0; BRD4-BD1 (experimental hit status) [3, 10]: 0; STAT5B-NTD (experimental hit status) [5, 10]: 0"
"Cc1nnc(C(C)NC(=O)CCC2(C)N=N2)[nH]1 (centres unmarked) [PhP090, Cc([nH]1)nnc1C(C)NC(=O)CCC2(C)N=N2]",0.1,0.2,0.3,0.5,0,0.5,0,"KRAS-G12D (experimental hit status) [1, 9]: 0; BRD4-BD1 (experimental hit status) [3, 9]: 0; STAT5B-NTD (experimental hit status) [5, 9]: 0"
"CC1(CCC(=O)NCCSCc2ccccc2)N=N1 [PhP051, N1=NC1(C)CCC(=O)NCCSCc2ccccc2]",0,0.1,0.2,1,0,1,0,"KRAS-G12D (experimental hit status) [1, 8]: 0; BRD4-BD1 (experimental hit status) [3, 8]: 0; STAT5B-NTD (experimental hit status) [5, 8]: 0"
"Cn1c(CCNC(=O)CCC2(C)N=N2)nc2ccccc21 [PhP020, c1cccc(c12)n(C)c(n2)CCNC(=O)CCC3(C)N=N3]",0,0.3,0.4,0.6,0,0.2,0,experimental hit status KRAS-G12D [1]: 0; experimental hit status BRD4-BD1 [3]: 0; experimental hit status STAT5B-NTD [5]: 0
"CC1(CCC(=O)Nc2ccc(N3CCCCC3)cc2C(N)=O)N=N1 [PhP054, N1=NC1(C)CCC(=O)Nc2ccc(cc2C(=O)N)N3CCCCC3]",0,0,0.6,9.8,2.9,0,0,"KRAS-G12D (experimental hit status) [1, 8]: 0; BRD4-BD1 (experimental hit status) [3, 8]: 0; STAT5B-NTD (experimental hit status) [5, 8]: 0"
"COc1ccc(-c2csc(CCNC(=O)CCC3(C)N=N3)n2)cc1 [PhP006, COc1ccc(cc1)-c2csc(n2)CCNC(=O)CCC3(C)N=N3]",1.3,0.3,2.3,3.3,0,0.6,0,KRAS-G12D [1]: 0; BRD4-BD1 [3]: 0; STAT5B-NTD [5]: 0
"CC1(CCC(=O)N[C@@H](Cc2ccc(O)cc2)C(N)=O)N=N1 [PhP058, N1=NC1(C)CCC(=O)N[C@H](C(=O)N)Cc2ccc(O)cc2]",0,0.1,0.4,0.5,1,0,1.2,"KRAS-G12D (experimental hit status) [1, 10]: 0; BRD4-BD1 (experimental hit status) [3, 10]: 0; STAT5B-NTD (experimental hit status) [5, 10]: 0"
"CC1(CCC(=O)NCCCc2nc3ccccc3[nH]2)N=N1 [PhP069, N1=NC1(C)CCC(=O)NCCCc(n2)[nH]c(c23)cccc3]",0.5,0.2,1.5,0.8,1,0.2,0,"KRAS-G12D (experimental hit status) [1, 10]: 0; BRD4-BD1 (experimental hit status) [3, 10]: 0; STAT5B-NTD (experimental hit status) [5, 10]: 0"
"CC1(CCC(=O)NCc2nnc3n2CCC3)N=N1 [PhP083, N1=NC1(C)CCC(=O)NCc(nn2)n(c23)CCC3]",0.2,0.1,0.3,0.7,1,0.4,0,"KRAS-G12D (experimental hit status) [1, 9]: 0; BRD4-BD1 (experimental hit status) [3, 9]: 0; STAT5B-NTD (experimental hit status) [5, 9]: 0"
"CC1(CCC(=O)NCc2ccccc2NS(C)(=O)=O)N=N1 [PhP025, CS(=O)(=O)Nc1ccccc1CNC(=O)CCC2(C)N=N2]",0.1,0.1,0.2,1.2,0,0.2,0,experimental hit status KRAS-G12D [1]: 0; experimental hit status BRD4-BD1 [3]: 0; experimental hit status STAT5B-NTD [5]: 0

# Source: publication PMC11292009, “Mapping protein binding sites by photoreactive fragment pharmacophores” (Communications Chemistry, 2024)
